Publication PMC12475274, “Harnessing indole scaffolds to identify small-molecule IRE1α inhibitors modulating XBP1 mRNA splicing” (Nature Communications, 2025)
Several values for one entry are separate records, joined by “and”; a condition that tells them apart may be missing. Equal entries are not always repeated. Entries after “also recorded” stand apart in the source; their conditions may differ. Where two headings read alike, the source gives them in different places. Blank lines part the entries; values can stand above or below the compound they belong to.

What was measured:
[1] = biological target: T1, phosphorylated IRE1α (p-IRE1α) (Homo sapiens, UniProt O75460); assay: FRET-based IRE1α RNase activity assay, phosphorylated IRE1α; format: biochemical; conditions: for inhibition(%): p-IRE1a
T1 construct: Human IRE1α kinase and RNase domain (residues 547–977) was subcloned into pLIB plasmid; His tag (with TEV cleavage site) (N, cleaved yes); made in house; host or cells: Sf9 insect cells, baculovirus (Bac-to-Bac)
T1 sequence (O75460 547-977): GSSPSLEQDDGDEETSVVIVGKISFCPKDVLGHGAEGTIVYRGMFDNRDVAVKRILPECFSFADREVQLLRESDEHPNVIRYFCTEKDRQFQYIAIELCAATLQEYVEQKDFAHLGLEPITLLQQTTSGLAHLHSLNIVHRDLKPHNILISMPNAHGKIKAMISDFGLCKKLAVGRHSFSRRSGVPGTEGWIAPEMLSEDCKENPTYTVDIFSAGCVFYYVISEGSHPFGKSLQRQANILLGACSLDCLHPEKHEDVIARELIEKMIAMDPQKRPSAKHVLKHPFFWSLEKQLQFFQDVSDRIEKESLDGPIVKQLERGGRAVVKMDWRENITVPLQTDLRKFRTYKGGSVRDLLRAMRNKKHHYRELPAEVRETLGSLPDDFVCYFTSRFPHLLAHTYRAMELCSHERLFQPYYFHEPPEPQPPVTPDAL
Method in brief: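 Sf9-expressed IRE1α kinase-RNase domain (residues 547–977), fully phosphorylated fraction, 4 nM, preincubated with compound 30 min at RT, then 200 nM FAM/BHQ1 XBP1 RNA added in HEPES pH 7.5 buffer. Fluorescence (ex 485/em 535 nm) read kinetically for 1 h at RT; inhibition from linear slopes, IC50 by concentration-response fit.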

[2] = biological target: T2, p-IRE1α (Homo sapiens, UniProt O75460); assay: Differential scanning fluorimetry (DSF), p-IRE1α; format: binding; conditions: for p-IRE1a ∆Tm: DSF, individual measurements; for p-IRE1a ∆Tm(°C): individual replicate values
T2 construct: Human IRE1α kinase and RNase domain (residues 547–977) was subcloned into pLIB plasmid; His tag (with TEV cleavage site) (N, cleaved yes); made in house; host or cells: Sf9 insect cells, baculovirus (Bac-to-Bac)
T2 sequence (O75460 547-977): as above
Description: The DSF assay was performed in PBS buffer containing 2 mM DTT, in a total reaction volume of 20 µl with indicated compounds (final 1% DMSO) and the final concentration of 1 µM IRE1α protein and 5× SYPRO Orange fluorescent dye (5000× in DMSO, Sigma S5692). The melting curve was measured at a temperature range from 25 °C to 95 °C and in increments of 1 °C for 30 s using a Bio-Rad CFX96 Real-Time PCR detection system with the FRET scan mode. The melting temperature (Tm) was obtained by fitting the melting curve to Boltzmann sigmoidal in GraphPad Prism and the thermal shift (∆Tm) was calculated by using the equation: ∆Tm = Tm(compound) -Tm(DMSO).

[3] = biological target: T3, p-IRE1α dimerization and oligomerization (Homo sapiens, UniProt O75460); assay: DSS cross-linking assay with mass photometry; conditions: 100 μM compound, DSS crosslinking
T3 construct: Human IRE1α kinase and RNase domain (residues 547–977) was subcloned into pLIB plasmid; His tag (with TEV cleavage site) (N, cleaved yes); made in house; host or cells: Sf9 insect cells, baculovirus (Bac-to-Bac)
T3 sequence (O75460 547-977): as above
Description: Phosphorylated IRE1α (p-IRE1α) and compounds were incubated 30 min at room temperature, with a final concentration of 2 μM p-IRE1α and 100 μM of the indicated compound, in a buffer containing 20 mM HEPES, pH 7.5, 50 mM KOAc, 1 mM MgOAc2, 1 mM DTT, 0.05% v/v TritonX-100, in a total reaction volume of 20 μL. After incubation, DSS (disuccinimidyl suberate, Thermo Fisher, A39267) was added to the reaction at a final concentration of 250 μM to induce crosslinking at room temperature for 1 h. Tris (pH 7.5) was added to a final concentration of 50 mM to stop the reaction. Samples were further measured with a mass photometry instrument (Refeyn Ltd). The PBS buffer was used for the mass photometry measurement. The instrument was calibrated with BSA and TG protein mixture in PBS. Samples were diluted to a protein concentration of 100 nM with buffer before measurement. Then, 18 μL PBS buffer was added to the center of the gasket on the coverslips to check and find the focus. Afterward, 2 μL of the diluted sample was added, mixed, and measured. Data were analyzed using Discover MP software, for each sample, results from 3 individual measurements were merged.

[4] = FRET assay, RNase activity, mean (± SEM), read-out: p-IRE1α IC50
[5] = FRET assay, source data, unit from Fig. 3, read-out: p-IRE1a IC50, individual replicates (n1-n4)
[6] = FRET assay, read-out: p-IRE1α IC50 (RNase activity)

SMILES: COc1ccc2c(c1)c(CCC(=O)O)c(C)n2C(=O)c1ccc(Cl)cc1 [IA01]
inhibition at 50 µM ([1]; FRET assay at 50 μM, mean (± SEM), read-out: p-IRE1α inhibition%): 99.3%
p-IRE1a Inhibiton%, individual measurements ([1]; FRET assay at 50 μM, source data, 50 µM): 102.461% and 99.7014% and 101.879% and 92.3671% and 96.3072%
inhibition at 50 µM ([1]; FRET assay at 50 μM, source data, read-out: p-IRE1a Inhibiton%, individual measurements): 103%
IC50 [1, 4]: 320 nM
IC50 [1, 5]: 544 nM and 136 nM and 264 nM and 325 nM
stabilization of p-IRE1α in DSF [2]: concentration-dependently stabilized
p-IRE1a ∆Tm ([2]; compound 25 μM): 0.52 °C and 0.47 °C
p-IRE1a ∆Tm ([2]; compound 50 μM): 0.91 °C and 1.02 °C

SMILES: COc1ccc2c(c1)c(CCC(=O)O)c(C)n2C(=O)c1ccccc1 [IA64]
IC50 [1, 4]: 37.4 nM
IC50 [1, 6]: 30 nM
IC50 [1, 5]: 61 nM and 17 nM and 34 nM and 26 nM
p-IRE1a ∆Tm(°C) ([2]; compound 6.25 μM): 0.67 °C and 0.63 °C
p-IRE1a ∆Tm(°C) ([2]; compound 12.5 μM): 1.12 °C and 1.05 °C
p-IRE1a ∆Tm(°C) ([2]; compound 25 μM): 1.46 °C and 1.49 °C
p-IRE1a ∆Tm(°C) ([2]; compound 50 μM): 2.16 °C and 2.21 °C

SMILES: CCOC(=O)Nc1cccc2c(Oc3ncccc3-c3ccnc(N[C@H]4CCCNC4)n3)c(C)ccc12 [Compound G1749, reference compound]
effect on p-IRE1α RNase activity in the FRET assay [1]: inhibiting p-IRE1α; also recorded: inhibit the p-IRE1α RNase activity
inhibition(%) ([1]; 5.55556 μM): 93.9541% and 94.7061% and 91.8428% and 92.9515%
inhibition(%) ([1]; 16.6667 μM): 92.2815% and 93.8095% and 92.7972% and 92.696%
inhibition(%) ([1]; 50 μM): 92.1465% and 91.4042% and 91.8332% and 89.3845%
effect on p-IRE1α dimerization/oligomerization [3]: inhibited the dimerization; also recorded: interfere with the dimerization

SMILES: Cc1c(CCC(=O)O)c2cc(Br)ccc2n1C(=O)c1ccccc1 [IA107]
IC50 [1, 4]: 9.31 nM
IC50 [1, 6]: 9 nM
IC50 [1, 5]: 11.1 nM and 10.2 nM and 6.6 nM
effect on p-IRE1α dimerization/oligomerization [3]: did not inhibit the dimerization and oligomerization; also recorded: did not affect the dimerization and oligomerization
stabilization of p-IRE1α in DSF [2]: stabilized phosphorylated IREα concentration-dependently
p-IRE1a ∆Tm ([2]; compound 25 μM): 1.94 °C and 2.53 °C and 2.1 °C and 2.61 °C
p-IRE1a ∆Tm ([2]; compound 50 μM): 3.27 °C and 3.18 °C and 2.63 °C and 3 °C
p-IRE1a ∆Tm ([2]; compound 100 μM): 3.1 °C and 3.74 °C and 2.72 °C and 2.61 °C

SMILES: COc1ccc2c(c1)c(CCC(=O)O)c(C)n2C(=O)c1ccc2ccccc2c1 [IA34]
p-IRE1α IC50 ([1]; FRET assay, RNase activity, mean (± SEM)): IC₅₀ not reached
IC50 [1, 4]: > 20000 nM
inhibition(%) ([1]; IA34 0.000847 μM, Supplementary Fig. 3b, replicate values): 2.43% and -1.86% and 1.39%
inhibition(%) ([1]; IA34 0.00254 μM, Supplementary Fig. 3b, replicate values): -5.52% and -18.14% and 21.30% and 14.33%
inhibition(%) ([1]; IA34 0.007621 μM, Supplementary Fig. 3b, replicate values): 0.79% and -13.95% and -1.17% and 1.14%
inhibition(%) ([1]; IA34 0.022862 μM, Supplementary Fig. 3b, replicate values): 1.11% and -4.73% and 39.51% and 0.29%
inhibition(%) ([1]; IA34 0.068587 μM, Supplementary Fig. 3b, replicate values): -18.24% and -15.02% and -11.07% and -8.20%
inhibition(%) ([1]; IA34 0.205761 μM, Supplementary Fig. 3b, replicate values): -19.34% and -16.85% and 12.47% and -7.35%
inhibition(%) ([1]; IA34 0.617284 μM, Supplementary Fig. 3b, replicate values): 15.53% and 10.67% and -18.52% and -10.41%
inhibition(%) ([1]; IA34 1.85185 μM, Supplementary Fig. 3b, replicate values): -19.37% and -18.05% and -6.66% and -19.44%
inhibition(%) ([1]; IA34 5.55556 μM, Supplementary Fig. 3b, replicate values): 14.49% and 0.73% and 11.46% and -10.03%
inhibition(%) ([1]; IA34 16.6667 μM, Supplementary Fig. 3b, replicate values): 26.07% and 13.29% and -8.49% and -17.54%
inhibition(%) ([1]; IA34 50 μM, Supplementary Fig. 3b, replicate values): -20.79% and 2.08% and 7.61% and 4.39%
p-IRE1a ∆Tm(°C) ([2]; compound 6.25 μM): 0.04 °C and -0.01 °C
p-IRE1a ∆Tm(°C) ([2]; compound 12.5 μM): 0 °C and -0.08 °C
p-IRE1a ∆Tm(°C) ([2]; compound 25 μM): 0.02 °C and 0.03 °C
p-IRE1a ∆Tm(°C) ([2]; compound 50 μM): 0.03 °C and 0.12 °C

Now from value to compound, other results behind:

effect on p-IRE1α RNase activity in the FRET assay [1]: inhibit the p-IRE1α RNase activity
IC50 [1, 4]: 3 nM
SMILES: Cc1ccc2c(NS(=O)(=O)c3ccccc3Cl)cccc2c1Oc1ncccc1-c1ccnc(N[C@H]2CCCNC2)n1 [KIRA8]
effect on p-IRE1α dimerization/oligomerization [3]: interfere with the dimerization; also recorded: inhibited dimerization

effect on p-IRE1α RNase activity in the FRET assay [1]: did not inhibit the RNase activity
inhibition(%) ([1]; 50 μM): 0.943% and 1.151% and 1.193% and 2.068%
SMILES: CCOC(=O)CCc1c(C)n(C(=O)c2ccccc2)c2ccc(Br)cc12 [IAPD1]
inhibition(%) ([1]; 0.00254 μM): -4.888% and 2.526% and -4.055% and 4.733%
inhibition(%) ([1]; 16.6667 μM): -1.806% and 4.317% and -3.888% and 0.777%

IC50 [1, 4]: 82 nM and 80 nM
IC50 [1, 5]: 98.9 nM and 83.6 nM and 62.4 nM
p-IRE1a ∆Tm(°C) ([2]; compound 3.125 μM): 0.72 °C and 0.27 °C (2×) and 0.32 °C
SMILES: Cc1c(CCC(=O)O)c2cc(Cl)ccc2n1C(=O)c1ccccc1 [IA141]
p-IRE1a ∆Tm(°C) ([2]; compound 1.563 μM): 0.12 °C and -0.00583 °C and 0.32 °C and -0.0158 °C
p-IRE1a ∆Tm(°C) ([2]; compound 6.25 μM): 0.99 °C and 0.72 °C and 0.76 °C and 0.85 °C
p-IRE1a ∆Tm(°C) ([2]; compound 12.5 μM): 1.57 °C and 1.31 °C and 1.36 °C and 1.19 °C
p-IRE1a ∆Tm(°C) ([2]; compound 25 μM): 2.22 °C and 2.10 °C and 1.74 °C and 2.25 °C
p-IRE1a ∆Tm(°C) ([2]; compound 50 μM): 2.87 °C and 2.43 °C and 2.53 °C and 2.76 °C
p-IRE1a ∆Tm(°C) ([2]; compound 100 μM): 3.32 °C and 3.36 °C and 3.61 °C and 3.33 °C

IC50 [1, 4]: 133 nM and 130 nM
IC50 [1, 5]: 154 nM and 127 nM and 116 nM
p-IRE1a ∆Tm(°C) ([2]; compound 3.125 μM): 0.29 °C (2×) and 0.42 °C and 0.19 °C
SMILES: Cc1ccc2c(c1)c(CCC(=O)O)c(C)n2C(=O)c1ccccc1 [IA147]
p-IRE1a ∆Tm(°C) ([2]; compound 1.563 μM): 0.22 °C and 0.13 °C and 0.08 °C and 0.11 °C
p-IRE1a ∆Tm(°C) ([2]; compound 6.25 μM): 0.58 °C and 0.78 °C and 0.38 °C and 0.50 °C
p-IRE1a ∆Tm(°C) ([2]; compound 12.5 μM): 0.95 °C and 0.90 °C and 0.84 °C and 1.22 °C
p-IRE1a ∆Tm(°C) ([2]; compound 25 μM): 1.52 °C and 1.79 °C and 1.41 °C and 1.95 °C
p-IRE1a ∆Tm(°C) ([2]; compound 50 μM): 2.33 °C and 2.18 °C and 1.98 °C and 2.60 °C
p-IRE1a ∆Tm(°C) ([2]; compound 100 μM): 3.18 °C and 2.83 °C and 2.92 °C and 3.09 °C
